The record followed here is ChEMBL document CHEMBL1140868, “Current perspective of TACE inhibitors: a review” (Bioorg Med Chem, 2009).

In data set [1] the target is T1, Disintegrin and metalloproteinase domain-containing protein 17 (Homo sapiens, UniProt P78536). In words: Inhibition of TACE.
Data set [2] concerns Mus musculus. In words: Inhibition of LPS-induced TNFalpha production in po dosed mouse. Type of data set: functional.
A short description of data set [3]: Half life in human. Format: ADME, organism-based. To be noted: in vivo.
Data set [4] is described as follows: Oral bioavailability in dog. The note with it: in vivo. Format: ADME, organism-based, Canis lupus familiaris.
The nature of data set [5]: Oral bioavailability in rat. Type of data set: ADME, organism-based. To be noted: in vivo.
A short description of data set [6]: Inhibition of TNFalpha production in whole blood. Type of data set: functional, tissue-based.
Data set [7] deals with T1, Disintegrin and metalloproteinase domain-containing protein 17. Description: Inhibition of TACE by cell free assay.
Data set [8] is described as follows: Half life in rat LPS model. Format: ADME, organism-based. The note with it: in vivo.
A further data set addresses Collagenase 3 (Homo sapiens, UniProt P45452). Description: Inhibition of MMP13.
A short description of data set [9]: Selectivity for TACE over MMP1.
Data set [10] can be described thus: Selectivity for TACE over MMP2.
The nature of data set [11]: Bioavailability in rat. The note with it: in vivo. Format: ADME, organism-based.
The subject of data set [12] is Mus musculus. Description: Inhibition of TNFalpha production in mouse at 50 mg/kg, po after 1 hr. Type of data set: functional.
For another data set, the target named is T2, Interstitial collagenase (Homo sapiens, UniProt P03956).
T2 sequence (P03956 whole entry): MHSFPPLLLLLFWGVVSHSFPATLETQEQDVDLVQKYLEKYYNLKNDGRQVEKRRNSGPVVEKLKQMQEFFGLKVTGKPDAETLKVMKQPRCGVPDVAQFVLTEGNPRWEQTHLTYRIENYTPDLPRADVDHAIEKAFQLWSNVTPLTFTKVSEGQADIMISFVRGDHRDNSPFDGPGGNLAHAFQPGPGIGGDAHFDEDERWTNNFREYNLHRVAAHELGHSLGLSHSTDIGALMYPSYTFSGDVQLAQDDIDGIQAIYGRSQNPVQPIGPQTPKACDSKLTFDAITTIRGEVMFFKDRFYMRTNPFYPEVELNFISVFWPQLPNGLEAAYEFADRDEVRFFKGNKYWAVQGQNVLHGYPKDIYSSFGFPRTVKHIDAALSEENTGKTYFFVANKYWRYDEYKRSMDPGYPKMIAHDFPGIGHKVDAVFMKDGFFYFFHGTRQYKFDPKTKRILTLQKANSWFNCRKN
In words: Inhibition of MMP1.

The next data set relates to THP-1. Description: Inhibition of LPS-induced TNFalpha production in human THP1 cells. Type of data set: functional, cell-based.
Data set [13] in a line: Selectivity for TACE over MMP9.
The subject of data set [14] is Mus musculus. In words: Inhibition of TNFalpha production in mouse at 100 mg/kg, po after 1 hr. Type of data set: functional.
Data set [15] deals with Disintegrin and metalloproteinase domain-containing protein 17 (Sus scrofa, UniProt O77636). Description: Inhibition of pig TACE.
Data set [16] has as its target 72 kDa type IV collagenase (Homo sapiens, UniProt P08253). Description: Inhibition of MMP2.
Data set [17] has as its target Matrix metalloproteinase-9 (Homo sapiens, UniProt P14780). Description: Inhibition of MMP9.
For data set [18], the target named is T1, Disintegrin and metalloproteinase domain-containing protein 17. In words: Inhibition of TACE in human PBMC.
Another data set concerns Rattus norvegicus. Description: Inhibition of LPS-induced TNFalpha production in po dosed rat plasma. Type of data set: functional.
A short description of data set [19]: Fraction unbound in human serum. Type of data set: ADME, cell-free.
Another data set relates to Blood. Description: Inhibition of TNFalpha production in human whole blood. Type of data set: functional, tissue-based.

pIC50, pKi: −log10 of the molar value.

By pIC50 is commonly meant the IC50 on a negative log10 scale, so that one unit is a factor of ten. A lower pIC50 goes with a high IC50. Usually ED50 stands for the dose at which the effect has come halfway, by size or by number of responders. The low end stands for an effect at a small dose, the high end for a need for a large dose. As a reminder, the half-life is how long it takes for the measured level to halve. Read a high half-life as slow loss. By bioavailability is commonly meant dose-corrected exposure relative to a reference, in per cent. Read a low bioavailability as poor availability. Usually inhibition in vivo stands for the drop in the measured response relative to a control, in per cent. Low values mean little suppression, high ones strong suppression. The term pKi denotes the Ki on a negative log10 scale, so that one unit is a factor of ten. The term fraction unbound denotes free concentration divided by total concentration.

T1 sequence (P78536 whole entry, the tested form may be a part): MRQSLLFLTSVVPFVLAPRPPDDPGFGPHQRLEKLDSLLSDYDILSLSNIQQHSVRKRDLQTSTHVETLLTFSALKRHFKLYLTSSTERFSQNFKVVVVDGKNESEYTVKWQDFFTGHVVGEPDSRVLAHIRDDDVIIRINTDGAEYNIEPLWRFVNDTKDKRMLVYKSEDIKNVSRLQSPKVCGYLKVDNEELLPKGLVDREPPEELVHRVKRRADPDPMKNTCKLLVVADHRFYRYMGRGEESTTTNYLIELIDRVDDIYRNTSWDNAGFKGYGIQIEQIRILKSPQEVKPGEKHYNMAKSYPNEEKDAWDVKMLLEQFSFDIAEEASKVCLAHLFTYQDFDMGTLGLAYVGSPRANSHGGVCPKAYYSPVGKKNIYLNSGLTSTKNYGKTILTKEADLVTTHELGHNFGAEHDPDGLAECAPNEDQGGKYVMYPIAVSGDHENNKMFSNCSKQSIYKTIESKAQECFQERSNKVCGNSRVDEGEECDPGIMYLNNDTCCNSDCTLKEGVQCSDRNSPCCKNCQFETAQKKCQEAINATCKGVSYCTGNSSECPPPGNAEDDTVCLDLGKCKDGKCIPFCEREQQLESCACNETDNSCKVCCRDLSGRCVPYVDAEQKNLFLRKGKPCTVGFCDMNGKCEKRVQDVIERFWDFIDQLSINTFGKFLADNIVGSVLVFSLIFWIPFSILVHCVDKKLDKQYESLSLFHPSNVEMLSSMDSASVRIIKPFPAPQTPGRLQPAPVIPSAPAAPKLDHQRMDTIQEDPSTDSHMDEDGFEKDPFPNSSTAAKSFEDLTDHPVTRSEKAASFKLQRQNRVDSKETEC
Disintegrin and metalloproteinase domain-containing protein 17 (Sus scrofa, UniProt O77636), sequence (O77636 whole entry, the tested form may be a part): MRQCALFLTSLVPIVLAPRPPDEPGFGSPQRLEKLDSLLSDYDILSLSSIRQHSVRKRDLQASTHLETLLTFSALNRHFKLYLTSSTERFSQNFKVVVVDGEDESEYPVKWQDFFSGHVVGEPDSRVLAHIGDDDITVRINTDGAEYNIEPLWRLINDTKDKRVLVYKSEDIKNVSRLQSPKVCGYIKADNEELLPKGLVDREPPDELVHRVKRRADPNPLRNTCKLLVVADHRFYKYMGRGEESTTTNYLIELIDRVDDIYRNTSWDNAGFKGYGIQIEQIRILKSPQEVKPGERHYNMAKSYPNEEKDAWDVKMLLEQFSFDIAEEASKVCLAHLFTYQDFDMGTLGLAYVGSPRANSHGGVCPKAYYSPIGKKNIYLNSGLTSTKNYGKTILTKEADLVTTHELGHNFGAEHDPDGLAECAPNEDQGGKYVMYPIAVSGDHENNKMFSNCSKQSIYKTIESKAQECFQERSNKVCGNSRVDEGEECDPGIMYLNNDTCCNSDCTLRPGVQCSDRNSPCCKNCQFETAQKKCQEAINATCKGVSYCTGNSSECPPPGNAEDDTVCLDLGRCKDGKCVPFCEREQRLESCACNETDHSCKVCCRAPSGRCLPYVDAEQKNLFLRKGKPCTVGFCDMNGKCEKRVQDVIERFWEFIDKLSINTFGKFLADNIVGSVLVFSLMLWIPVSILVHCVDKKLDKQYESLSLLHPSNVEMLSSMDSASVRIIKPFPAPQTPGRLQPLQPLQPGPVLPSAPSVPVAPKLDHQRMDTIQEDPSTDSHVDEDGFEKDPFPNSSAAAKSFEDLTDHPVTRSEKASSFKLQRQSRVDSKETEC
Matrix metalloproteinase-9, sequence (P14780 whole entry, the tested form may be a part): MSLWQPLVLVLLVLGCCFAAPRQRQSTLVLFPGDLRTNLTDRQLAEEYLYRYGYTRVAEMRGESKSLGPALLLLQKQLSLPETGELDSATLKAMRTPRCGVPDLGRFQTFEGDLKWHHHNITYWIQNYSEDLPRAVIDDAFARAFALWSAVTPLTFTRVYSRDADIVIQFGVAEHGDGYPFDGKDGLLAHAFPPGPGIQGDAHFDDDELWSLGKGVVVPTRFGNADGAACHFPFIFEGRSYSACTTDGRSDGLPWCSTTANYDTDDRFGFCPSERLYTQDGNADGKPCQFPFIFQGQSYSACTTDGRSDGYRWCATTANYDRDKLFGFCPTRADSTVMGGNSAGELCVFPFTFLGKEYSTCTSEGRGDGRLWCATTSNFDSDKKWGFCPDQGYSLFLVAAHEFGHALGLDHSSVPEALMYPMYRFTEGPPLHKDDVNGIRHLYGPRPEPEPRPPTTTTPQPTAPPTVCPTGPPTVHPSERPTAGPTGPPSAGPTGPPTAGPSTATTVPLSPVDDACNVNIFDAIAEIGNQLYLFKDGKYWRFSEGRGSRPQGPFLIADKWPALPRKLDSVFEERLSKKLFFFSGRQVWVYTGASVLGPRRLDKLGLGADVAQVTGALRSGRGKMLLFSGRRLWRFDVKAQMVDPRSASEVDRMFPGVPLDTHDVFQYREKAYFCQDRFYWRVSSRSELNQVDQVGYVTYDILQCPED
72 kDa type IV collagenase, sequence (P08253 whole entry): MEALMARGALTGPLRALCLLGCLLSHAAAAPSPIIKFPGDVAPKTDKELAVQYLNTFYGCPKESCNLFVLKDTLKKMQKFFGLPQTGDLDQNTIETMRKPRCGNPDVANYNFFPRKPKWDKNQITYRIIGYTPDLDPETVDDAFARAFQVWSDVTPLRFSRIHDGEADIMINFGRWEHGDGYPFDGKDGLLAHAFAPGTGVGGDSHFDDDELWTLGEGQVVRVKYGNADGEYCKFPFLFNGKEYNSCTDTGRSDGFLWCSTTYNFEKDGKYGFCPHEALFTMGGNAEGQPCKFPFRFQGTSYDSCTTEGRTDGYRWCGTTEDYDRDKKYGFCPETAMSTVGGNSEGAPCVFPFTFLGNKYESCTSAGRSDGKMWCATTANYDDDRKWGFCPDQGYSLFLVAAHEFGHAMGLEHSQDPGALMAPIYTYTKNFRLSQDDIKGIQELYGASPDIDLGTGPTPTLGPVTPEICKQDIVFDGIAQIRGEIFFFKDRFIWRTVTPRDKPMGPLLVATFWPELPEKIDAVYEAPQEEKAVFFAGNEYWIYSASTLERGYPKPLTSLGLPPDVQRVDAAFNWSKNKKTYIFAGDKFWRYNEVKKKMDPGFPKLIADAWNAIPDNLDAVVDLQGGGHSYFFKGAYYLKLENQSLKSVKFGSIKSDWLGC

Consider `Cc1cc(COc2ccc([C@]3(N)CCN([C@H](CC(C)C)C(=O)NO)C3=O)cc2)c2ccccc2n1`, for which the negative logarithm of the IC50 (pIC50) was 9.70 in data set [1] and 7.05 in data set [6]. In the data set on Mus musculus [2], it took a dose of 6 mg/kg to reach the 50% effect level (ED50). This molecule also gave a half-life in [3] of 3 h. Also, the bioavailability in data set [4] came to 54%; in [5], 16%.

On to `CC[C@H](C)[C@H](NC(=O)[C@H](CC(C)C)[C@H](C(C)C)N(O)C=O)C(=O)Nc1ccccn1`, for which the negative logarithm of the IC50 (pIC50) in [7] was 7.40. This molecule registered a half-life in [8] above 12 h.

Turning to `Cc1cc(COc2ccc(NC(=O)[C@@H]3[C@@H](C(=O)NO)CCCN3C)cc2)c2ccccc2n1`, the pIC50 in [1] is 8.21; in data set [6] it was 7.70.

`COc1ccc(S(=O)(=O)N(C)c2c(C)cc(Br)cc2C(=O)NO)cc1` had a pIC50 at Collagenase 3 of 7.96.

Consider `Cc1cc(COc2ccc(C(=O)NC3(C)C(=O)NC(=O)NC3=O)cc2)c2ccccc2n1`, for which the pIC50 in data set [1] was 10.59.

On to `Cc1cc(COc2ccc(C(=O)N[C@@H]3COCC[C@@H]3C(=O)NO)cc2)c2ccccc2n1`, for which the Selectivity ratio in [9] and in data set [10] was above 30000 throughout. Also, the negative-log IC50 (pIC50) in data set [1] was above 9.00; in [6], 6.89. In [11], this molecule displayed a bioavailability of 58%.

In turn, `C[C@H](C(=O)NO)N1CC[C@@](C)(c2ccc(Oc3ccccc3)cc2)C1=O` had a pIC50 in data set [1] of 6.73.

Take `Cc1cc(OCc2ccc(NC(=O)[C@H]3CCCC[C@@H]3C(=O)NO)cc2)c2ccccc2n1`: the pIC50 in data set [1] is 8.10; in data set [6] it was below 4.30.

In data set [1], `CC(C)Cc1ccc([C@]2(C)CCN([C@H](C)C(=O)NO)C2=O)cc1` had a pIC50 of 6.00.

For `CC#CCOc1ccc([S+]([O-])C(CCCCCC)C(=O)NO)cc1` (stereo unspecified), the negative-log IC50 (pIC50) in [1] is 8.40.

Take `CC#CCOc1ccc(S(=O)(=O)N(C)c2c(N3CCN(C)CC3)ccc(Br)c2C(=O)NO)cc1`: the Selectivity ratio in [9] is 500. In addition, in data set [1], the pIC50 was 7.60. The molecule also showed an inhibition in vivo at 50 mg/kg in the data set on Mus musculus [12] of 100%.

In turn, `O=C(NO)[C@@H]1CC[C@H](O)CN1S(=O)(=O)c1ccc(OCc2ccccc2I)cc1` had a pIC50 in data set [1] of 3.96.

For `CNC(=O)[C@H](Cc1ccc(NC(=N)N)cc1)NC(=O)[C@H](CC(C)C)[C@H](CCCc1ccccc1)C(=O)NO`, the negative-log IC50 (pIC50) was 8.22 against Interstitial collagenase, 10.00 against Collagenase 3 and 6.89 with THP-1.

Turning to `Cc1cc(COc2ccc(S(=O)(=O)CC3C(C(=O)NO)CCN3C)cc2)c2ccccc2n1` (stereo unspecified), the Selectivity ratio in data set [9], in [10] and in [13] was 2000 each time. Besides, the pIC50 in data set [1] was 9.00; in data set [6], 6.74.

`CC#CCOc1ccc(S(=O)(=O)CC2(C(=O)NO)CCN(S(=O)(=O)C(C)C)CC2)cc1`: in data set [10], the Selectivity ratio was determined as 230.

For `CC#CCOc1ccc(S(=O)(=O)N(C)c2c(C(=O)NO)cnc3onc(C)c23)cc1`, in the data set with Mus musculus [14], the inhibition in vivo at 100 mg/kg worked out at 95%.

In data set [1], `CC1(C)SCCN(S(=O)(=O)c2ccc(Oc3ccncc3)cc2)[C@H]1C(=O)NO` [PRINOMASTAT] gave a negative logarithm of the IC50 (pIC50) of 7.66.

Regarding `C[C@H](C(=O)NO)N1CC[C@@](C)(c2ccc(-c3ccccc3)cc2)C1=O`, in data set [1], the pIC50 was 4.89.

For `Cc1cc(COc2ccc(N3CCC([C@H](NC(=O)OC(C)(C)C)C(=O)NO)C3=O)cc2)c2ccccc2n1` (stereo partly specified), the Selectivity ratio in data set [9] turned out to be 700; in data set [10], 300; in data set [13], 300.

As for `COc1cc(COc2ccc3c(c2)NCCN(C(CCCCNS(C)(=O)=O)C(=O)NO)S3(=O)=O)cc(OC)c1` (stereo unspecified), in data set [15], the negative-log Ki (pKi) is 8.30.

Regarding `C/C=C/C=C/C=C1/C=C(CCC(=O)NO)C(=O)OC1`, the pIC50 was 8.22 in data set [16], 7.55 in data set [1] and 7.64 in data set [17].

As to `C[C@H](C(=O)NO)N1CC[C@@](C)(c2ccc(OCc3cc(C(F)(F)F)cc(C(F)(F)F)c3)cc2)C1=O`, the Selectivity ratio in data set [9], in data set [10] and in data set [13] was above 1000 throughout. This molecule also had a pIC50 in data set [1] of 8.70.

As to `C[C@H](C(=O)NO)N1CC[C@@](C)(c2ccc(OCc3ccccc3)cc2)C1=O`, the pIC50 in data set [1] is 8.40.

Take `CNC(=O)[C@@H](NC(=O)[C@H](c1ccc(OC)cc1)[C@H](CO)C(=O)NO)C(C)(C)C`: in [18], the pIC50 is 7.25.

Turning to `CC1(C)SCCN(S(=O)(=O)c2ccc(OCC#CCO)cc2)[C@H]1C(=O)NO`, the pIC50 in [1] is 6.36.

On to `Cc1cc(COc2ccc(C(=O)NCCC(=O)NO)cc2)c2ccccc2n1`, for which the pIC50 in [15] was 9.00.

For `CCOP(=O)(N[C@@H](CC(C)C)C(=O)NO)c1ccc(OC)cc1` (stereo partly specified), the negative-log IC50 (pIC50) in data set [1] was 7.12.

In data set [7], `CCC[C@@H]([C@@H](CC(C)C)C(=O)C[C@@H](CCCN/C(N)=N/[N+](=O)[O-])C(=O)Nc1nccs1)N(O)C=O` showed a pIC50 of 8.37.

For `CC(C)C[C@@H](C(=O)NN(CC(C)C)S(C)(=O)=O)[C@H](C/C=C/c1ccccc1)C(=O)NO`, the negative-log IC50 (pIC50) in [1] is 8.52.

Consider `CC#CCOc1ccc(S(=O)(=O)N(C)c2c(C(=O)NO)cnc3c(OC)cccc23)cc1`, for which, in data set [9], the Selectivity ratio turned out to be 50.

`CNC(=O)[C@@H](NC(=O)[C@H](c1ccc(C)cc1)[C@H](CO)C(=O)NO)C(C)(C)C` gave a pIC50 in [18] of 6.85.

For `CC#CCOc1ccc(S(=O)(=O)N2Cc3ccc(CO)cc3N(C(C)=O)CC2C(=O)NO)cc1` (stereo unspecified), the Selectivity ratio in [9] is above 40.

`CCC(=O)[C@@H](NC(=O)[C@H](c1ccc(OC)cc1)[C@H](CO)C(=O)NO)C(C)(C)C` registered an ED50 with Rattus norvegicus of 1 mg/kg.

Turning to `C=CCONC(=O)[C@@H]1[C@@H](C)N(C(C)=O)CCN1S(=O)(=O)c1ccc(OCc2ccc(C)cc2)cc1`, the pIC50 against Interstitial collagenase was 5.80; on Collagenase 3, 8.52; in data set [1], 9.00.

On to `Cc1cc(COc2ccc([C@]3(C)CCN([C@H](C)C(=O)NO)C3=O)cc2)c2ccccc2n1`, for which the unbound share (fraction unbound) in data set [19] amounted to 0.036. In data set [6], this molecule had a negative logarithm of the IC50 (pIC50) of 6.46.

Turning to `Cc1cc(COc2ccc(N3CC[C@](C)(CC(=O)NO)C3=O)cc2)c2ccccc2n1`, the negative-log IC50 (pIC50) in [1] is 9.00; in the data set with Blood it was 5.80.

In the case of `Cc1cc(COc2ccc(C3(C)C(=O)NC(=O)NC3=O)cc2)c2ccccc2n1`, in data set [1], the negative-log IC50 (pIC50) is 9.00.

With `Cc1cc(COc2ccc(N3C(C(=O)NO)CCCS3(=O)=O)cc2)c2ccccc2n1` (stereo unspecified), the Selectivity ratio in data set [9], in data set [10] and in data set [13] was above 1000 each time.
